Where a name gives a salt, the structure may show the parent alone.
Key:
[1] = system: Human large intestine cancer cell strain KM20C; assay: Anti-tumor test using nude mouse subcutaneous implantation system with peroral administration of CNDAC compound; format: in vivo, BALB/cA Jcl-nu mice; settings: peroral once a day for 14 days, dose equivalent by mole to 18 mg/kg/day of CNDAC, day 29 after grouping, KM20C subcutaneous implant
Protocol: (§1) Human large intestine cancer cell strain KM20C was subcutaneously subcultured in BALB/cA Jcl-nu mice (CLEA Japan, Inc.), and the resultant cancer tissues were cut into 2 mm dice fragments. Each of the fragments was subcutaneously implanted to a 6-week-old BALB/cA Jcl-nu mouse at the back thereof. On day 14 after the implantation, large and small diameters of the resultant tumor were measured, and the volume of the tumor was calculated by the following equation. The mice were grouped (6 animals per group) so that the groups were roughly equal in terms of average tumor volume. Vt=½(Vl)×(Vs)^2 (Equation 1) In the equation, Vt represents tumor volume, Vl represents large diameter of tumor, and Vs represents small diameter of tumor.
Each CNDAC compound was dissolved or suspended in 0.5% hydroxypropyl methyl cellulose solution which had been buffered with 100 mM citrate buffer (pH 6.0). From the next day after grouping, the mixture was perorally administered to each mouse once a day for consecutive 14 days in a dose which is equivalent, by mole, to 18 mg/kg/day of CNDAC.
On day 29 after the grouping, large and small diameters of the subcutaneously implanted tumor of each mouse were measured, and relative tumor volume (RTV) and inhibition rate (IR) were calculated by the following equations to evaluate anti-tumor effect of the compound. RTV=Vt1/Vt2 (Equation 2) In the equation, RTV represents ratio of tumor volume, Vt1 represents tumor volume measured on the day of determination, and […]. IR(%)=[1−(RTVtest)/(RTVcont)]×100 (Equation 3) In the equation, IR represents tumor growth inhibition rate, RTVtest represents mean RTV value of a drug-administered group, and RTVcont represents mean RTV value of a non-treatment group.

[2] = system: Human large intestine cancer cell strain KM20C; assay: Anti-tumor test using nude mouse subcutaneous implantation system, peroral administration in an equitoxic dose; format: in vivo, BALB/cA Jcl-nu mice; settings: peroral once a day for 14 days, 6 animals per group, FIG. 1
Protocol: as §1, with “15” for “14”, “through use of” for “by”, “the” for “the groups were roughly equal in terms of”, “volume was common to each group.” for “volume.”, “5)” for “1)”
CNDAC, P-CNDAC, or Compound 19 was dissolved or suspended in 0.5% hydroxypropyl methyl cellulose solution which had been buffered with 100 mM citrate buffer (pH 5.0). From the next day of grouping, the mixture was perorally administered to each mouse once a day for consecutive 14 days in an equitoxic dose.
Large and small diameters of the subcutaneously implanted tumor of each mouse were measured twice a week, and relative tumor volume (RTV) was calculated as an index indicating tumor growth through use of the following equations to evaluate anti-tumor effect of the compound. RTV=Vt1/Vt2 (Equation 6) In the equation, RTV represents ratio of tumor volume, Vt1 represents tumor volume measured on the day of determination, and Vt2 represents tumor volume measured on the day of grouping.

[3] = Mus musculus, sc, 696 h, read-out: IR (%) tumor growth inhibition rate

Compound | melting point | inhibition in vivo [1, 3] [%] | other results
CC(C)C(C)(C)[Si](C)(C)O[C@H]1[C@@H](C#N)[C@H](n2ccc(N)nc2=O)O[C@@H]1CO | 179 to 182 °C | – | –
CC(C)(C)[Si](C)(C)OC[C@H]1O[C@@H](n2ccc(N)nc2=O)[C@@H](C#N)[C@@H]1O [Example 1, 5′-O-(tert-Butyldimethylsilyl)-2′-cyano-2′-deoxy-1-β-D-arabinofuranosylcytosine] | 185 °C (dec.) | 75 | –
CC(C)(C)[Si]1(C(C)(C)C)OC[C@H]2O[C@@H](n3ccc(N)nc3=O)[C@@H](C#N)[C@@H]2O1 [Example 18, 3′,5′-O-(Di-tert-butylsilanediyl)-2′-cyano-2′-deoxy-1-β-D-arabinofuranosylcytosine] | 139 to 140 °C | 69 | –
CC(C)C(C)(C)[Si](C)(C)OC[C@H]1O[C@@H](n2ccc(N)nc2=O)[C@@H](C#N)[C@@H]1O [Example 6, 5′-O-Dimethylthexylsilyl-2′-cyano-2′-deoxy-1-β-D-arabinofuranosylcytosine] | 188 °C (dec.) | 82 | –
CC(C)[C@H](N)C(=O)OC[C@H]1O[C@@H](n2ccc(N)nc2=O)[C@@H](C#N)[C@@H]1O[Si](C)(C)C(C)(C)C [Example 32, 5′-O-(L-Valyl)-3′-O-(tert-butyldimethylsilyl)-2′-cyano-2′-deoxy-1-β-D-arabinofuranosylcytosine bis(trifluoroacetate)] | – | 85 | –
CC(C)[Si](O[C@H]1[C@H](C#N)[C@H](n2ccc(N)nc2=O)O[C@@H]1CO)(C(C)C)C(C)C [Example 27, 3′-O-Triisopropylsilyl-2′-cyano-2′-deoxy-1-β-D-arabinofuranosylcytosine] | 162 to 163 °C | 85 | –
CC(C)[C@H](N)C(=O)OC[C@H]1O[C@@H](n2ccc(N)nc2=O)[C@@H](C#N)[C@@H]1O[Si](C)(C)C(C)(C)C(C)C (as salt: trifluoroacetate) [Example 31, 3′-O-Dimethylthexylsilyl-5′-O-(L-valyl)-2′-cyano-2′-deoxy-1-β-D-arabinofuranosylcytosine bis(trifluoroacetate)] | 118 to 120 °C | – | –
CC(C)C(C)(C)[Si](C)(C)O[C@H]1[C@H](C#N)[C@H](n2ccc(N)nc2=O)O[C@@H]1CO.O=C(O)C(F)(F)F [Example 25, 3′-O-Dimethylthexylsilyl-2′-cyano-2′-deoxy-1-β-D-arabinofuranosylcytosine trifluoroacetate] | 151 to 154 °C | – | –
CC[Si](CC)(OC[C@H]1O[C@@H](n2ccc(N)nc2=O)[C@@H](C#N)[C@@H]1O)C(C)C [Example 3, 5′-O-Diethylisopropylsilyl-2′-cyano-2′-deoxy-1-β-D-arabinofuranosylcytosine] | – | – | IR (%) tumor growth inhibition rate [1]: 82%
C[Si](C)(OC[C@H]1O[C@@H](n2ccc(N)nc2=O)[C@@H](C#N)[C@@H]1O)C1CCCCC1 | 152 to 153 °C | – | –
C[Si](C)(OC[C@H]1O[C@@H](n2ccc(N)nc2=O)[C@@H](C#N)[C@@H]1O)c1ccccc1 | 139 to 140 °C | – | –
CC(C)(C)[Si](C)(C)O[C@H]1[C@H](C#N)[C@H](n2ccc(N)nc2=O)O[C@@H]1CO.O=C(O)C(F)(F)F [Example 24, 3′-O-(tert-Butyldimethylsilyl)-2′-cyano-2′-deoxy-1-β-D-arabinofuranosylcytosine trifluoroacetate] | 163 to 165 °C | 83 | –
CC(C)[Si](OC[C@H]1O[C@@H](n2ccc(N)nc2=O)[C@@H](C#N)[C@@H]1O)(C(C)C)C(C)C [Example 2, 5′-O-Triisopropylsilyl-2′-cyano-2′-deoxy-1-β-D-arabinofuranosylcytosine] | 177 °C (dec.) | 65 | –
CCCCCCCCCCCCCCCC(=O)Nc1ccn([C@@H]2O[C@H](CO)[C@@H](O)[C@@H]2C#N)c(=O)n1 [P-CNDAC, 4-N-palmitoyl-2′-cyano-2′-deoxy-1-β-D-arabinofuranosylcytosine, reference compound] | – | – | deletion of tumor [2]: no deletion of tumor
CC(C)[C@H](N)C(=O)OC[C@H]1O[C@@H](n2ccc(N)nc2=O)[C@@H](C#N)[C@@H]1O[Si](C)(C)C(C)(C)C (as salt: trifluoroacetate) [Example 32, 5′-O-(L-Valyl)-3′-O-(tert-butyldimethylsilyl)-2′-cyano-2′-deoxy-1-β-D-arabinofuranosylcytosine bis(trifluoroacetate)] | 118 to 120 °C | – | –
CCCCCCCC[Si](C)(C)OC[C@H]1O[C@@H](n2ccc(N)nc2=O)[C@@H](C#N)[C@@H]1O [Example 10, 5′-O-(Dimethyl-n-octylsilyl)-2′-cyano-2′-deoxy-1-β-D-arabinofuranosylcytosine] | 142 °C | 68 | –
CC(C)C(C)(C)[Si](C)(C)O[C@H]1[C@H](C#N)[C@H](n2ccc(N)nc2=O)O[C@@H]1CO.CS(=O)(=O)O | 203 to 204 °C | – | –
N#C[C@H]1[C@H](O)[C@@H](CO[Si](c2ccccc2)(c2ccccc2)c2ccccc2)O[C@H]1n1ccc(N)nc1=O | 203 °C (dec.) | – | –
N#C[C@H]1[C@H](O)[C@@H](CO[Si](Cc2ccccc2)(Cc2ccccc2)Cc2ccccc2)O[C@H]1n1ccc(N)nc1=O | 188 °C (dec.) | – | –
CC(C)[C@H](N)C(=O)OC[C@H]1O[C@@H](n2ccc(N)nc2=O)[C@@H](C#N)[C@@H]1O[Si](C)(C)C(C)(C)C(C)C [Example 31, 3′-O-Dimethylthexylsilyl-5′-O-(L-valyl)-2′-cyano-2′-deoxy-1-β-D-arabinofuranosylcytosine bis(trifluoroacetate)] | – | 89 | –
CC(C)C(C)(C)[Si](C)(C)O[C@H]1[C@H](C#N)[C@H](n2ccc(N)nc2=O)O[C@@H]1CO (as salt: hydrochloride) [Example 26, 3′-O-Dimethylthexylsilyl-2′-cyano-2′-deoxy-1-β-D-arabinofuranosylcytosine hydrochloride] | 206 °C (dec.) | – | –
CC(C)C[Si](CC(C)C)(CC(C)C)O[C@H]1[C@H](C#N)[C@H](n2ccc(N)nc2=O)O[C@@H]1CO | 101 to 102 °C | – | –
CC(C)(C)[Si](OC[C@H]1O[C@@H](n2ccc(N)nc2=O)[C@@H](C#N)[C@@H]1O)(c1ccccc1)c1ccccc1 | 187 °C | – | –
CC[Si](CC)(O[C@H]1[C@H](C#N)[C@H](n2ccc(N)nc2=O)O[C@@H]1CO)C(C)C [Example 21, 3′-O-Diethylisopropylsilyl-2′-cyano-2′-deoxy-1-β-D-arabinofuranosylcytosine] | 161 to 163 °C | 85 | –
CC(C)C[Si](CC(C)C)(CC(C)C)OC[C@H]1O[C@@H](n2ccc(N)nc2=O)[C@@H](C#N)[C@@H]1O [Example 7, 5′-O-Triisobutylsilyl-2′-cyano-2′-deoxy-1-β-D-arabinofuranosylcytosine] | 152 °C | 79 | –
CC(C)C(C)(C)[Si](C)(C)OC[C@H]1O[C@@H](n2ccc(N)nc2=O)[C@H](C#N)[C@@H]1O | 187 to 187.5 °C | – | –
N#C[C@H]1[C@H](O)[C@@H](CO)O[C@H]1n1ccc(N)nc1=O [CNDAC, 2′-cyano-2′-deoxy-1-β-D-arabinofuranosylcytosine, reference compound] | – | – | deletion of tumor [2]: no deletion of tumor; inhibition in vivo at 18 mg/kg/day [1, 3]: 46%
CCCCCCCC[Si](C)(C)O[C@H]1[C@H](C#N)[C@H](n2ccc(N)nc2=O)O[C@@H]1CO [Example 23, 3′-O-(Dimethyl-n-octylsilyl)-2′-cyano-2′-deoxy-1-β-D-arabinofuranosylcytosine] | 153 to 154 °C | – | –

From patent US7825103B2, “Pyrimidine nucleoside compound or its salt” (Taiho Pharmaceutical Co., Ltd., priority 2005, dated 2010)
